# Measured values: patent US9840481B2, “Allosteric modulators of nicotinic acetylcholine receptors” (MERCK SHARP & DOHME CORP., priority 2016, dated 2017)
# Where two headings read alike, the source gives them in different places.
# Biological target: T1, human α7 nAChR stably expressed in a HEK cell line (with human RIC-3) (Homo sapiens, UniProt P36544)
# T1 construct: PrecisION hnAChR α7/RIC-3
# Test: Automated patch-clamp electrophysiology functional assay (Assay A), IonFlux HT, whole-cell population patch
# Assay type: cell-based
# Experimental: The α7 nAChR positive allosteric modulator (PAM) activity of the present compounds may be tested using assays known in the art. The α7 nAChR PAMs described herein have activities in an automated patch-clamp electrophysiology functional assay as described in the examples. The assay was performed using the IonFlux HT in a whole-cell, population patch configuration. See Golden et al. Assay Drug Dev. Technol. (2011) 9:608-619. The compounds were assessed for their ability to modulate the function of the human α7 nAChR stably expressed in a HEK cell line both in the presence, and in the absence of the natural α7 agonist acetylcholine. By performing a series of such measurements at different concentrations, the effective concentration of the α7 nAChR PAMs (EC50) was determined. See Spencer et al. Assay Drug Dev. Technol. (2012) 10:313-324.
# Direct activation of α7 (agonism), and potentiation of 5 acetylcholine-evoked α7 currents was determined as follows:
# Automated Patch-Clamp Electrophysiology Functional Assay (Assay A)
# Automated patch-clamp electrophysiology was performed using the IonFlux HT (Fluxion Biosciences Inc., San Francisco, Calif.) in the whole-cell, population patch configuration. Test compounds were assessed for their ability to modulate the function of the α7 nicotinic acetylcholine receptor both in the presence, and in the absence of the natural α7 agonist acetylcholine. A HEK cell line stably expressing both human RIC-3 and human α7 (PrecisION hnAChR α7/RIC-3, Eurofins Pharma, St. Charles, Mo.) was cultured in 175 cm^2 triple-layer tissue culture flasks to no more than 90% confluency in DMEM/F-12 growth media supplemented with 10% heat-inactivated fetal bovine serum, 1% non-essential amino acids, 0.625 μg/mL Puromycin, and 400 μg/mL Geneticin. Immediately prior to assay, cells were detached by first aspirating growth media, rinsing with Dulbecco's phosphate buffered saline, and then adding 10 mL of Accutase (Innovative Cell Technologies, San Diego, Calif.) to the flask and then incubating at 37° C. for 5 minutes. Detached cells were then recovered by the addition of 40 mL of CHO-serum-free media supplemented with 25 mM HEPES, and rocked gently in a 50 mL conical tube for 20 minutes prior to patch-clamp assay. After recovery, cells were pelleted by centrifugation at 1,000 RPM for 1 minute in a compact bench top centrifuge; recovery media was aspirated and cells were resuspended in external recording solution (150 mM NaCl, 5 mM KCl, 2 mM CaCl2, 1 mM MgCl2, 10 mM HEPES, 12 mM dextrose) to a density of 5.0×10^6 cells/mL. The cell suspension was added to the cell inlet wells on an IonFlux HT population patch plate which had previously been rinsed and primed with deionized H2O. Test compounds were serially diluted in DMSO and then resuspended to the final test concentration in external recording solution, with, or without […] acetylcholine added to the external recording solution; test compounds were then transferred to the IonFlux HT population patch plate. Internal recording solution (110 mM TrisPO4, 28 mM TrisBase, 0.1 mM CaCl2, 2 mM MgCl2, 11 mM EGTA, 4 mM MgATP) was added to the internal recording solution inlet wells on the IonFlux HT patch plate previously loaded with cells and test compounds, and the plate loaded into the IonFlux HT instrument. A protocol was executed on the IonFlux HT to trap the cells, break into the cells, and establish the whole-cell recording configuration; cells were voltage-clamped at a holding potential of −60 mV for the duration of the experiment, all experiments were conducted at room temperature, and the IonFlux HT injection pressure was 8 psi for solution applications. Upon establishing the whole-cell configuration, external recording solution was perfused into the recording chambers for 120 seconds and then 40 μM acetylcholine was applied for 1 second and immediately washed off with external recording solution for 60 seconds. […]
# [1] = automated patch-clamp electrophysiology functional assay (Assay A), potency class by EC50, read-out: α7 nAChR Potency
# [2] = electrophysiology EC50, HEK cells expressing human α7/RIC-3, 40 μM acetylcholine, holding potential −60 mV, room temperature, read-out: α7 nAChR EC50
# T1 sequence (P36544 23-502): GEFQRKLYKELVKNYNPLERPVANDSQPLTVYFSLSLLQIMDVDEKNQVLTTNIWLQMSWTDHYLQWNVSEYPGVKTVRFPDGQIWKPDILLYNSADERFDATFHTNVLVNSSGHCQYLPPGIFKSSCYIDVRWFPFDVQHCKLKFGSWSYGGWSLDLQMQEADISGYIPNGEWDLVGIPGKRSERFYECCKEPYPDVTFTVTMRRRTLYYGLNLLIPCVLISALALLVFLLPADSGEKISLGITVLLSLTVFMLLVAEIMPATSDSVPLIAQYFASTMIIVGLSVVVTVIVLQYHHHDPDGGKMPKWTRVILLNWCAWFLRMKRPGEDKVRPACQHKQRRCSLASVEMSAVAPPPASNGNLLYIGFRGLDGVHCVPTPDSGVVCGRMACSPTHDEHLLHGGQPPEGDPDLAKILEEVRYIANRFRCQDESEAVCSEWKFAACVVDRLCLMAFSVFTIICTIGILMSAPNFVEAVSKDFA
Compound,EC50 [1],EC50 [2]
NS(=O)(=O)c1ccc([C@@H]2C[C@H]2c2nc(C3CCCC3)no2)cc1 [Example D21],100 to 500 nM,130 nM
"CC1(C)[C@H](c2ccc(S(N)(=O)=O)cc2)[C@H]1c1cnc(-c2ccccc2)o1 [Example 10, 4-[(1R,3R)-2,2-Dimethyl-3-(2-phenyl-1,3-oxazol-5-yl)cyclopropyl]benzenesulfonamide]",500 to 5000 nM,1200 nM
CC1(C)[C@H](c2ccc(S(N)(=O)=O)cc2)[C@H]1c1nc(C2CCCO2)no1 (some centres unmarked) [Example B12],5000 to 50000 nM,
NS(=O)(=O)c1ccc([C@@H]2C[C@H]2c2nc(-c3cc(F)ccc3C(F)(F)F)no2)cc1 [Example C8],100 to 500 nM,500 nM
CC(=O)N1CCC(c2noc([C@@H]3[C@@H](c4ccc(S(N)(=O)=O)cc4)C3(C)C)n2)CC1 [Example B16],500 to 5000 nM,2200 nM
"COc1ccc(Cl)cc1-c1noc([C@@H]2C[C@H]2c2ccc(S(N)(=O)=O)cc2)n1 [Example 19, 4-{(1R,2R)-2-[3-(5-Chloro-2-methoxyphenyl)-1,2,4-oxadiazol-5-yl]cyclopropyl}benzenesulfonamide]",500 to 5000 nM,780 nM
CC1(C)[C@@H](c2ccc(S(N)(=O)=O)cc2)[C@@H]1c1nc(-c2ccc(C(F)(F)F)nc2)no1 [Example D29],500 to 5000 nM,
CC1(C)[C@H](c2ccc(S(N)(=O)=O)cc2)[C@H]1c1nnc(-c2c(F)cccc2C(F)(F)F)o1 [Example F3],500 to 5000 nM,4700 nM
NS(=O)(=O)c1ccc([C@@H]2[C@@H](c3nc(-c4ccccc4)no3)C2(F)F)cc1 [Example A9],500 to 5000 nM,
NS(=O)(=O)c1ccc([C@H]2[C@H](c3nc(-c4ccccc4)no3)C2(F)F)cc1 [Example C21],≤ 100 nM,83 nM
CC1(C)[C@@H](c2ccc(S(N)(=O)=O)cc2)[C@@H]1c1nc(-c2cccnc2C(F)(F)F)no1 [Example D30],500 to 5000 nM,1200 nM
"NS(=O)(=O)c1ccc([C@@H]2C[C@H]2c2nsc(N3CCCCC3)n2)cc1 [Example 29, 4-{(1R,2R)-2-[5-(Piperidin-1-yl)-1,2,4-thiadiazol-3-yl]cyclopropyl}benzenesulfonamide]",100 to 500 nM,140 nM
NS(=O)(=O)c1ccc([C@@H]2C[C@H]2c2nc(-c3cccc(F)c3F)no2)cc1 [Example C15],100 to 500 nM,340 nM
CC1(C)[C@@H](c2ccc(S(N)(=O)=O)cc2)[C@@H]1c1nc(-c2ccccn2)no1 [Example D4],5000 to 50000 nM,6800 nM
CC1(C)[C@H](c2ccc(S(N)(=O)=O)cc2)[C@H]1c1nc(-c2cncc(C(F)(F)F)c2)no1 [Example B7],500 to 5000 nM,2800 nM
NS(=O)(=O)c1ccc([C@H]2C[C@@H]2c2nc(C3CCCCC3)no2)cc1 [Example B4],500 to 5000 nM,
"NS(=O)(=O)c1ccc([C@@H]2C[C@H]2c2cn(-c3cccc(F)c3)nn2)cc1 [Example 26, 4-{(1R,2R)-2-[1-(3-Fluorophenyl)-1H-1,2,3-triazol-4-yl]cyclopropyl}benzenesulfonamide]",500 to 5000 nM,1600 nM
"CC1(C)[C@H](c2ccc(S(N)(=O)=O)cc2)[C@H]1c1nc(C2CC2)c(C2CC2)o1 [Example 31, 4-[(1R,3R)-3-(4,5-Dicyclopropyl-1,3-oxazol-2-yl)-2,2-dimethylcyclopropyl]benzenesulfonamide]",500 to 5000 nM,2400 nM
CC1(C)[C@@H](c2ccc(S(N)(=O)=O)cc2)[C@@H]1c1nc(CC(F)(F)F)no1 [Example D14],500 to 5000 nM,
"CC1(C)[C@H](c2ccc(S(N)(=O)=O)cc2)[C@H]1c1nnc(-c2ccc(F)cc2F)s1 [Example 5, 4-{(1R,3R)-3-[5-(2,4-Difluorophenyl)-1,3,4-thiadiazol-2-yl]-2,2-dimethylcyclopropyl}benzenesulfonamide]",100 to 500 nM,180 nM
CC1(C)[C@H](c2ccc(S(N)(=O)=O)cc2)[C@H]1c1nc(CC2CC2)no1 [Example B10],500 to 5000 nM,3000 nM
CC1(C)[C@@H](c2ccc(S(N)(=O)=O)cc2)[C@@H]1c1nc(-c2ccc(F)cc2F)no1 [Example C12],500 to 5000 nM,
"CC1C(c2ccc(S(N)(=O)=O)cc2)C1c1nc(-c2ccccc2)no1 (single isomer, unassigned; diastereomer 4) [Example 22, 4-(2-Methyl-3-(3-phenyl-1,2,4-oxadiazol-5-yl)cyclopropyl)benzenesulfonamide, diastereomer 4]",100 to 500 nM,120 nM
"Cc1ccc(F)cc1-c1noc([C@H]2[C@H](c3ccc(S(N)(=O)=O)cc3)C2(C)C)n1 [Example 1, 4-((1S,3S)-3-(3-(5-Fluoro-2-methylphenyl)-1,2,4-oxadiazol-5-yl)-2,2-dimethylcyclopropyl)-benzenesulfonamide]",500 to 5000 nM,4100 nM

# Continued, values first:
EC50 [1],EC50 [2],Compound
100 to 500 nM,350 nM,NS(=O)(=O)c1ccc([C@@H]2C[C@H]2c2ncc(C3CC3)o2)cc1 [Example K5]
500 to 5000 nM,710 nM,Cc1ncoc1-c1nc([C@H]2[C@H](c3ccc(S(N)(=O)=O)cc3)C2(C)C)no1 [Example I7]
≤ 100 nM,88 nM,NS(=O)(=O)c1ccc([C@@H]2C[C@H]2c2nsc(-c3cccc(F)c3)n2)cc1 [Example L10]
500 to 5000 nM,,NS(=O)(=O)c1ccc([C@@H]2C[C@H]2c2csc(C3CCCC3)n2)cc1 [Example L14]
500 to 5000 nM,,CC1(C)[C@H](c2ccc(S(N)(=O)=O)cc2)[C@H]1c1ncc(C2CCCC2)s1 [Example J9]
500 to 5000 nM,950 nM,CC1(C)[C@@H](c2ccc(S(N)(=O)=O)cc2)[C@@H]1c1cn(-c2cccc(F)c2)nn1 [Example L6]
500 to 5000 nM,3100 nM,CC1(C)[C@@H](c2ccc(S(N)(=O)=O)cc2)[C@@H]1c1noc(-c2cc(C(F)(F)F)c3ccccc3n2)n1 [Example I13]
500 to 5000 nM,,CC1(C)[C@@H](c2ccc(S(N)(=O)=O)cc2)[C@@H]1c1noc(C2CN(C(=O)C3CC3)C2)n1 [Example I23]
500 to 5000 nM,1800 nM,CC1(C)[C@@H](c2ccc(S(N)(=O)=O)cc2)[C@@H]1c1nnc(-c2ccccc2)o1 [Example G1]
500 to 5000 nM,540 nM,CCc1coc([C@H]2[C@H](c3ccc(S(N)(=O)=O)cc3)C2(C)C)n1 [Example K8]
500 to 5000 nM,710 nM,CC1(C)[C@@H](c2ccc(S(N)(=O)=O)cc2)[C@@H]1c1noc(C2CC2)n1 [Example I25]
5000 to 50000 nM,5400 nM,CC1(C)[C@@H](c2ccc(S(N)(=O)=O)cc2)[C@@H]1c1noc(-c2cc3sccc3[nH]2)n1 [Example I22]
500 to 5000 nM,,CCOc1nc([C@@H]2[C@@H](c3ccc(S(N)(=O)=O)cc3)C2(C)C)ns1 [Example L9]
500 to 5000 nM,1500 nM,CC1(C)[C@@H](c2ccc(S(N)(=O)=O)cc2)[C@@H]1c1noc(-c2cccc(F)c2)n1 [Example H5]
500 to 5000 nM,1300 nM,CC1(C)[C@H](c2ccc(S(N)(=O)=O)cc2)[C@H]1c1noc(N2CCCCC2)n1 [Example L20]
500 to 5000 nM,,CC1(C)[C@@H](c2ccc(S(N)(=O)=O)cc2)[C@@H]1c1cnc(-c2ccccc2)o1 [Example L1]
100 to 500 nM,210 nM,"NS(=O)(=O)c1ccc(C2CC2c2nc(-c3cccc(F)c3)ns2)cc1 (single isomer, unassigned) [Example M4]"
